# Measurements as given in patent US20040086901A1, “Database for analyzing gene function and method of analyzing gene function by dspa” (priority 2000, published 2004).
# Experiments:
# Format in all cases: cell-based, mouse
# [1] = system: NIH3T3 cells overexpressing ERK-DN; assay: MTT cell viability, ERK-DN overexpressing cells vs parental line; conditions: ERK-DN high-expressing cells / parental cell line, 3 to 4 days
# Protocol: (§1) With regard to the function-known genes, the genes shown in the left column of Table 2 were used. With regard to the drugs, those shown in Table 1 were dissolved in DMSO to an extent of 100-fold of the maximum concentration for the search of the drugs and used. With regard to the cells, incubated NIH3T3 or ras-NIH3T3 cells were used.
# (§2) Full-length cDNA of each function-known genes was incorporated into an expression vector (pRc-CMV, etc.) and transfected into NIH3T3 cells by a common method. Transformed cells were isolated using the resistance to G-418 as an index and the expression of the transfected gene in each cell was investigated by Western blotting method to select a highly expressing line.
# (§3) Cell viabilities were measured according to the following procedures.
# (§4) 1) From the 2nd to the 11th rows of a 96-well plate were filled with DMEM (50 μl). The 12th row was filled with 100 μl of DMEM.
# (§5) 2) The 1st row was filled with 98 μl of DMEM.
# (§6) 3) Drugs (2 μl each) were added into the 1st row.
# (§7) 4) Continuous double-dilution was conducted from the 1st to the 9th rows. Fifty μl were taken out from the 9th row and discarded. The plate was preserved in a CO2 incubator.
# (§8) 5) Cells (each high-expressing cells and the parental cell line) were detached from the medium using a trypsin solution, suspended in 10% CS-DMEM and transferred to a test tube and cell numbers (cell/ml) were counted.
# (§9) 6) The cells were diluted to a concentration of 1×10^5 cells/ml, and 50 μl of the cell suspension were added to the 1st to the 11th rows of the plate followed by gently stirring.
# (§10) 7) The plate was transferred to the CO2 incubator and incubated for 3 to 4 days.
# (§11) 8) MTT (5 mg/ml in PBS) (10 μl) was added to the 1st to the 12th rows of the plate and incubated in the CO2 incubator at 37° C. for 4 hours.
# (§12) 9) A reaction stop solution (0.04N HCl in isopropanol) (150 μl) was added followed by mixing well and being allowed to stand at room temperature for about 2 hours.
# (§13) 10) Coloration of formazan which was a metabolite of the MTT dye was measured using a microplate reader. The measurement wavelength was 574 nm and the reference wavelength was 655 nm. The 10th and the 11th rows of the plate were 100% controls and the 12th row was a 0% control.
# (§14) As an index for the sensitivity of highly gene-expressing cells and the parental cell line to various drugs, each of the IC40 values thereof was specified and ratios of the IC40 values were calculated. […] After that, logarithmic values of ratios of IC40 values were calculated from each gene.
# [2] = system: NIH3T3 cells overexpressing p53(wt); assay: MTT cell viability, p53(wt) overexpressing cells vs parental line; conditions: p53(wt) high-expressing cells / parental cell line, 3 to 4 days
# Protocol: as §1, §2, §3, §4, §5, §6, §7, §8, §9, §10, §11, §12, §13, §14
# [3] = system: NIH3T3 cells overexpressing T.Tn; assay: MTT cell viability, T.Tn overexpressing cells vs parental line; conditions: T.Tn high-expressing cells / parental cell line, 3 to 4 days
# Protocol: as §1, §2, §3, §4, §5, §6, §7, §8, §9, §10, §11, §12, §13, §14
# [4] = system: NIH3T3 cells overexpressing RhoA-DN; assay: MTT cell viability, RhoA-DN overexpressing cells vs parental line; conditions: RhoA-DN high-expressing cells / parental cell line, 3 to 4 days
# Protocol: as §1, §2, §3, §4, §5, §6, §7, §8, §9, §10, §11, §12, §13, §14
# [5] = system: NIH3T3 cells overexpressing C/EBPb; assay: MTT cell viability, C/EBPb overexpressing cells vs parental line; conditions: C/EBPb high-expressing cells / parental cell line, 3 to 4 days
# Protocol: as §1, §2, §3, §4, §5, §6, §7, §8, §9, §10, §11, §12, §13, §14
# [6] = system: NIH3T3 cells overexpressing C/EBPa; assay: MTT cell viability, C/EBPa overexpressing cells vs parental line; conditions: C/EBPa high-expressing cells / parental cell line, 3 to 4 days
# Protocol: as §1, §2, §3, §4, §5, §6, §7, §8, §9, §10, §11, §12, §13, §14
# [7] = system: NIH3T3 cells overexpressing CaMKIIa-Active; assay: MTT cell viability, CaMKIIa-Active overexpressing cells vs parental line; conditions: CaMKIIa-Active high-expressing cells / parental cell line, 3 to 4 days
# Protocol: as §1, §2, §3, §4, §5, §6, §7, §8, §9, §10, §11, §12, §13
# As an index for the sensitivity of highly gene-expressing cells and the parental cell line to various drugs, each of the IC40 values thereof was specified and ratios of the IC40 values were calculated. FIG. 2 and FIG. 3 are the examples where ratios of IC40 values were calculated from a curve showing the dependency on the concentration of the chemical versus the viability. After that, logarithmic values of ratios of IC40 values were calculated from each gene.
Molecule,logarithmic value of ratio of IC40 values [1],logarithmic value of ratio of IC40 values [2],logarithmic value of ratio of IC40 values [3],logarithmic value of ratio of IC40 values [4],logarithmic value of ratio of IC40 values [5],logarithmic value of ratio of IC40 values [6],logarithmic value of ratio of IC40 values [7]
C=CC1=C(C)c2cc3[n-]c(cc4nc(cc5[n-]c(cc1n2)c(C)c5CCC(=O)O)C(CCC(=O)O)=C4C)c(C)c3C=C.[Cl-].[Cl-].[Sn+4] [SnPP],0.00,−0.18,0.00,0.08,−0.50,0.00,0.30
"C/C=C(/C)C(=O)O[C@H]1C(C)=C2[C@H]([C@@H]1OC(=O)CCCCCCC)[C@@](C)(OC(C)=O)C[C@H](OC(=O)CCC)[C@@]1(O)[C@H]2OC(=O)[C@@]1(C)O [Thapsigargin, thapsigargin]",−0.15,−0.05,0.32,0.06,0.29,−0.09,0.03
COc1ccc2c(c1)CC[C@@H]1[C@@H]2CC[C@]2(C)[C@@H](NCCCCCCN3C(=O)C=CC3=O)CC[C@@H]12 [U73122],0.00,0.11,−0.26,−0.35,0.10,0.00,0.00
"COC[C@H]1OC(=O)c2coc3c2[C@@]1(C)C1=C(C3=O)[C@@H]2CCC(=O)[C@@]2(C)C[C@H]1OC(C)=O [Wortmannin, wortmannin]",−0.11,0.40,0.36,0.00,0.34,0.00,0.18
ICE inhibitor-III [ICEin-3],0.00,0.23,0.30,0.00,0.35,−0.46,0.22
